In patent publication US5516905A, “Antibiotic compounds and methods to treat gram-positive bacterial and mycoplasmal infections” (priority 1994, dated 1996):
Converted amounts (≈) assume the structure as drawn. Where two headings read alike, the source gives them in different places.

Experiments:
Methicillin-Resistant SA = assay: Minimal inhibitory concentration vs. growth of methicillin-resistant Staphylococcus aureus; type: cell-based
Wild-Type BS = assay: Minimal inhibitory concentration vs. growth of B. subtilis; type: cell-based; conditions: Bacillus subtilis
Control SA = assay: Minimal inhibitory concentration vs. growth of Staphylococcus aureus (control strain); type: cell-based
B. subtilis Pol III = target: T1, B. subtilis Pol III (Bacillus subtilis, UniProt P13267); assay: DNA polymerase activity assay, B. subtilis Pol III; type: biochemical; conditions: dGTP 10 μM; arylazopyrimidines reduced to hydrazino forms
T1 construct: B. subtilis Pol III was prepared and used as described by (Barnes); made in house
Experimental: (§1) DNA pol activity was assayed as described (Barnes et al., NuC. Acids Res., 6:1203-19 (1979)), using activated calf-thymus DNA as template primer, […] [^3 H-methyl]-dTTP as the labelled dNTP substrate, and dATP, dCTP, and dGTP at 25 μM each. For determination of IC50 values of TMAU and the four arylazopyrimidines (summarized in Table 2), the concentration of dGTP was reduced from 25 to 10 μM. TMAU was used directly in enzyme assays, and arylazopyrimidines were reduced prior to assay to the active, hydrazino forms, using sodium dithionite as described by Wright and Brown (1977) J. Med. Chem. 20:1181-1185.
(§2) Five compounds were used to assess the sensitivity of peak A pol activity to HPUra-type inhibitors. These were the four compounds used in the growth experiment described above (HPUra, PUra, PCPUra, and MCPUra) as well as TMAU (6-([…]) uracil), a `second generation` derivative of the HPUra prototype, equivalent in mechanism and target specificity (Wright and Brown, 1990). The IC50 value (the concentration required for 50% inhibition) of each of these agents was determined for the peak A pol activity and for an inhibitor-sensitive control enzyme, B. subtilis Pol III.

[1] = target: T2, M. pulmonis peak A pol activity (Pol III); assay: DNA polymerase activity assay, M. pulmonis peak A pol (Bio-Rex 70); type: biochemical; conditions: Fraction 7 from peak A; dGTP 10 μM; arylazopyrimidines reduced to hydrazino forms
T2 construct: we prepared a crude extract of M. pulmonis; endogenous in cells; host or cells: M. pulmonis (strain KD735-15 was the strain propagated)
Experimental: (§3) Fraction Va (Bio-Rex 70 chromatography): Fraction IV was diluted with column buffer containing 1% Triton X-100 to reduce the concentration of NaCl to 25 mM, and then applied to a 2 ml Bio-Rex 70 (Bio-Rad) column equilibrated in column buffer containing 1% Triton X-100+25 mM NaCl. The column was washed with 5 ml of the same buffer, and the adsorbed enzyme was eluted in two distinct peaks (designated A and B) at approximately 0.15 and 0.30M NaCl, respectively. As the top panel of the figure indicates, peak A represents the HPUra-sensitive pol activity. Peak A was pooled to generate Fraction Va.
as §1, §2

[2] = system: T3, exo activity of peak A pol; assay: Exo activity of peak A enzyme on 3'-labelled ssDNA; type: biochemical, M. pulmonis; conditions: TMAU 50 μM, dsDNA, plus 500 μM dATP
T3 construct: we prepared a crude extract of M. pulmonis; endogenous in cells; host or cells: M. pulmonis (strain KD735-15 was the strain propagated)
Experimental: (§4) Exo activity was assayed as described by Low et al. (1976), supra, using denatured calf-thymus DNA incorporating [^3 H]-dTMP residues at the 3'-OH ends.
(§5) TMAU at 50 μM inhibited ssDNA digestion by about 70% in the presence of dsDNA. When the latter mixture was supplemented with 500 μM dGTP, the specific antagonist of TMAU-induced sequestration inhibition was reduced to a level of <3%.

[3] = target: T4, exo activity of peak A pol (Bacillus subtilis, UniProt P13267); assay: Exo activity of peak A enzyme on 3'-labelled ssDNA; type: biochemical, M. pulmonis; conditions: for inhibition at 50 µM: read-out: Inhibition of ssDNA digestion
T4 construct: we prepared a crude extract of M. pulmonis; endogenous in cells; host or cells: M. pulmonis (strain KD735-15 was the strain propagated)
Experimental: as §4, §5

[4] = system: M. pulmonis strain KD735-15; assay: Mycoplasmal growth inhibition on agar (colony formation, cfu); type: cell-based, Mycoplasma pulmonis; conditions: for IC99: Mycoplasmopsis pulmonis, KD73515, series 100, 50, 25, 12.5 and 6.25 μM, read-out: Concentration required to inhibit colony formation by 99%
Experimental: M. pulmonis strain KD735-15 (construction described in Bhugra and Dybvig, 1992) was propagated in mycoplasmal medium, and colony-forming units (cfu) were assessed on agar as previously described (Dybvig and Cassell, 1987). M pulmonis is a representative species which is well characterized. Other publicly available strains may also be used. For example, Mycoplasma agalactiae, ATCC 35890, Mycoplasma arthritidis ATCC 13988, Mycoplasma bovigenitalium, ATCC 14173, Mycoplasma bovirhinis, ATCC 27748, Mycoplasma bovis, ATCC 25025, Mycoplasma felis, ATCC 23391, Mycoplasma gallinaceum, ATCC 33550, Mycoplasma gallinarum, ATCC 15319, Mycoplasma gallisepticum, ATCC 15302, Mycoplasma genitalium, ATCC 33530, Mycoplasma hominis, ATCC 14027, Mycoplasma hyorhinis, ATCC 17981, Mycoplasma hyosynoviae, ATCC 25591, Mycoplasma meleagridis, ATCC 25294, Mycoplasma orale, ATCC 15539, Mycoplasma pneumoniae, ATCC 15293, Mycoplasma pullorum, ATCC 33553, Mycoplasma pulmonis, ATCC 14267, Mycoplasma putrefaciens, ATCC 15718, Mycoplasma synoviae, ATCC 25204, may also be used. The inhibitors used here were prepared as described in Wright and Brown ((1990) Pharmac. Ther. 47:447-497) and were prepared at a stock concentration of 20 mM in dimethyl sulphoxide (DMSO). Growth inhibition was examined on agar by comparing cfu obtained on medium lacking or supplemented with antibiotic. DMSO alone at concentrations as high as 1% had no effect on growth or cfu capacity of M. pulmonis.
HPUra and 25 other agents selected from a large collection of structurally related compounds (Wright and Brown, 1990, Pharmac. Ther. 47:447-497) were tested against M. pulmonis at a concentration of 200 μM as described in the Experimental procedures.

[5] = target: T5, M. pulmonis peak A pol activity (Pol III) (Bacillus subtilis, UniProt P13267); assay: DNA polymerase activity assay, M. pulmonis peak A pol (Bio-Rex 70); type: biochemical; conditions: 200 μM HPUra
T5 construct: we prepared a crude extract of M. pulmonis; endogenous in cells; host or cells: M. pulmonis (strain KD735-15 was the strain propagated)
Experimental: as §3, §1, §2

mammalian cells = conditions: cited from earlier work
[6] = system: M. pulmonis peak B pol activity; assay: DNA polymerase activity assay, M. pulmonis peak B pol (Bio-Rex 70); type: biochemical; conditions: 200 μM HPUra
Experimental: as §3, §1
To characterize the HPUra-sensitive pol activity further, we purified it using a five-step scheme summarized in Table 1 and described in the Experimental procedures. […]

[7] = nucleotide 500 μM, no TMAU, sequestering conditions with dsDNA

T4 sequence (P13267 whole entry): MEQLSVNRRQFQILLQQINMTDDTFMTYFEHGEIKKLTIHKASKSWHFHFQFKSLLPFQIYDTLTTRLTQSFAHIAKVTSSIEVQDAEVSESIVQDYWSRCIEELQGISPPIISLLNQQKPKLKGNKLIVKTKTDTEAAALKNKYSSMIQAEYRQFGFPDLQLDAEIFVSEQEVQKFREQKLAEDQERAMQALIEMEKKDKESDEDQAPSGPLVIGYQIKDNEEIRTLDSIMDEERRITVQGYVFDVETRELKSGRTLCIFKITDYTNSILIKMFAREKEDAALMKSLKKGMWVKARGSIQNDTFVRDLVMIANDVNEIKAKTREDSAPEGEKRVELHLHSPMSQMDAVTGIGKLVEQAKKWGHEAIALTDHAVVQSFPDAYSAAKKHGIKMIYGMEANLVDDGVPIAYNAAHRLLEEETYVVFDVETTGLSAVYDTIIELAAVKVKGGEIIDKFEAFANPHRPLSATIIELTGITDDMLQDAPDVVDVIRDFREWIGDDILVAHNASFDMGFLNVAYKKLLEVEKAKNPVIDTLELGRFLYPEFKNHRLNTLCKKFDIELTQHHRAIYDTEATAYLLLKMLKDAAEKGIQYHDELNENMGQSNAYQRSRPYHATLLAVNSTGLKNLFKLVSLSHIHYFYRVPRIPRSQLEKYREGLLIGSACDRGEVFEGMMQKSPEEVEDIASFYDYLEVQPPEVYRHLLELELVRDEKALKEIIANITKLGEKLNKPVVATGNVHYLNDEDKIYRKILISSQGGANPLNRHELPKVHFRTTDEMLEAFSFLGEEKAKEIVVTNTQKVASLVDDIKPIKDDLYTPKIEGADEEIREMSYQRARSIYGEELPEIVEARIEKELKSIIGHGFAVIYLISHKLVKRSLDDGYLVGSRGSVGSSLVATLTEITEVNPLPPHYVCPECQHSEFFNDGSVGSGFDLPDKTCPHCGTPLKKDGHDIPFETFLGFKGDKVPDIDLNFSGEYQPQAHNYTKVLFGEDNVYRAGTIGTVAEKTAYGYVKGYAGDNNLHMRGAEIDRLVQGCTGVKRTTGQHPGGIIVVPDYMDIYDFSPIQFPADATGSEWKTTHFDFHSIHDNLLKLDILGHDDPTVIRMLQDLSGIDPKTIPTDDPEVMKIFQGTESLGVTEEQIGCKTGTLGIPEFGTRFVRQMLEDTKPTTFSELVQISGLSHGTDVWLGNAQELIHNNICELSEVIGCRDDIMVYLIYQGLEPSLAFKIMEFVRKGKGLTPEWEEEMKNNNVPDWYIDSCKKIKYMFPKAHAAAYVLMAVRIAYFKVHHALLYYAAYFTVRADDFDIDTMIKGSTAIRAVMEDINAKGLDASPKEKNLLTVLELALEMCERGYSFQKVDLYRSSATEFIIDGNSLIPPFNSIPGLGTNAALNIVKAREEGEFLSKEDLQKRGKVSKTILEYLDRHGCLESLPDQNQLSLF
T1 sequence (P13267 whole entry): as above
T2 sequence (P13267 whole entry): as above
T3 sequence (P13267 whole entry): as above
T5 sequence (P13267 whole entry): as above

| Compound | MIC (Methicillin-Resistant SA) | MIC (Wild-Type BS) | MIC (Control SA) | IC50 (B. subtilis Pol III) | IC50 [1] | further results |
| --- | --- | --- | --- | --- | --- | --- |
| CCn1c(=O)cc(Nc2ccc3c(c2)CCC3)[nH]c1=O [C2 H5] | 0.5 µg/mL (≈ 1.84 µM) | 4 µg/mL (≈ 14.7 µM) | 1 µg/mL (≈ 3.69 µM) | – | – | – |
| O=c1cc(Nc2ccc3c(c2)CCC3)[nH]c(=O)[nH]1 [TMAU, 6-(3',4'-trimethylanilino) uracil] | 4 µg/mL (≈ 16.4 µM) | 23 µg/mL (≈ 94.5 µM) | 8 µg/mL (≈ 32.9 µM) | 8 µM | 11 µM | Effect of dATP on level of inhibition of ssDNA digestion [2]: no significant effect; Exo Activity (%) ([3]; TMAU 50 μM + dGTP 500 μM, sequestering conditions with dsDNA): 98%; activity at 50 µM ([3]; TMAU 50 μM alone, sequestering conditions with dsDNA): 31%; inhibition at 50 µM ([3]; TMAU 50 μM, dsDNA, plus 500 μM dGTP): < 3%; inhibition at 50 µM ([3]; TMAU 50 μM, in the presence of dsDNA): ~70%; Exo activity on ssDNA, sensitivity ([3]; TMAU 50 μM, ssDNA without dsDNA, preliminary, results not shown): resistant |
| O=c1cc(N=Nc2cccc(Cl)c2)[nH]c(=O)[nH]1 [MCPUra, 6-(m-chlorophenylazo)uracil] | – | – | – | 48 µM | 17 µM | IC99 [4]: 12.5 µM |
| CCCCn1c(=O)cc(Nc2ccc3c(c2)CCC3)[nH]c1=O [nC4 H9] | 0.5 µg/mL (≈ 1.67 µM) | 1.8 µg/mL (≈ 6.01 µM) | > 128 µg/mL | – | – | – |
| Nc1nc2c(ncn2[C@H]2C[C@H](O)[C@@H](COP(=O)(O)OP(=O)(O)OP(=O)(O)O)O2)c(=O)[nH]1 [dGTP] | – | – | – | – | – | Exo Activity (%) [3, 7]: 103% |
| CCCn1c(=O)cc(Nc2ccc3c(c2)CCC3)[nH]c1=O [nC3 H7] | – | 3.5 µg/mL (≈ 12.3 µM) | – | – | – | – |
| O=c1cc(N=Nc2ccccc2)[nH]c(=O)[nH]1 [PUra, 6-(phenylazo)uracil] | – | – | – | 34 µM | 20 µM | IC99 [4]: 6.25 to 12.5 µM |
| Cn1c(=O)cc(Nc2ccc3c(c2)CCC3)[nH]c1=O [CH3] | – | 7 µg/mL (≈ 27.2 µM) | – | – | – | – |
| COc1cccc(OC)c1C(=O)N[C@@H]1C(=O)N2[C@@H]1SC(C)(C)[C@@H]2C(=O)O [Methicillin] | 128 µg/mL (≈ 336 µM) | – | 1 µg/mL (≈ 2.63 µM) | – | – | – |
| Nc1ncnc2c1ncn2[C@H]1C[C@H](O)[C@@H](COP(=O)(O)OP(=O)(O)OP(=O)(O)O)O1 [dATP] | – | – | – | – | – | Exo Activity (%) [3, 7]: 101% |
| Oc1cc(N=Nc2ccc(Cl)cc2)nc(O)n1 [PCPUra, 6-(p-chlorophenylazo) uracil] | – | – | – | 57 µM | 31 µM | IC99 [4]: < 6.25 µM |
| O=c1cc(N=Nc2ccc(O)cc2)[nH]c(=O)[nH]1 [HPUra, 6-(p-Hydroxyphenylazo)-uracil] | – | – | – | 11 µM | 14 µM | Sensitivity of peak A pol activity [5]: drug-sensitive; Inhibition of colony formation ([4]; 200 μM): completely inhibited colony formation; Toxicity in mammalian cells (mammalian cells): low toxicity; Sensitivity of peak B pol activity [6]: insensitive |
